Reference: PMC6208650

Test: on-resin lactamisation, Asp side-chain COOH (C-terminal residue, anchored via Rink amide) + alpha-NH2 of N-terminal Dap(Boc); HATU/DIEA 1.05:2.1 equiv, overnight; then TFA cleavage
Conditions: 22-membered ring, NMP, 57.0 mM; for ring closure, product found: scale: 1 = cyclic product is largest ESI-MS signal, 0 = linear; for ring closure, conversion by HPLC: scale: % crude HPLC purity, 320 nm area of tallest peak or peak cluster
[1] = from CC(C)(C)OC(=O)NC[C@H](N)C(=O)N[C@@H](CNC(=O)c1cnc2ccccc2n1)C(=O)NCC(=O)N[C@@H](CNC(=O)c1cnc2ccccc2n1)C(=O)NCC(=O)N[C@@H](CNC(=O)c1cnc2ccccc2n1)C(=O)N[C@@H](CC(=O)O)C(N)=O
[2] = from CC(C)(C)OC(=O)NC[C@H](N)C(=O)NCC(=O)NCC(=O)N[C@@H](CNC(=O)c1cnc2ccccc2n1)C(=O)N[C@@H](CNC(=O)c1cnc2ccccc2n1)C(=O)NCC(=O)N[C@@H](CC(=O)O)C(N)=O
[3] = from CC(C)(C)OC(=O)NC[C@H](N)C(=O)N[C@@H](CNC(=O)c1cnc2ccccc2n1)C(=O)NCC(=O)NCC(=O)N[C@@H](CNC(=O)c1cnc2ccccc2n1)C(=O)N[C@@H](CNC(=O)c1cnc2ccccc2n1)C(=O)N[C@@H](CC(=O)O)C(N)=O
[4] = from CC(C)(C)OC(=O)NC[C@H](N)C(=O)N[C@@H](CNC(=O)c1cnc2ccccc2n1)C(=O)N[C@@H](CNC(=O)c1cnc2ccccc2n1)C(=O)NCC(=O)N[C@@H](CNC(=O)c1cnc2ccccc2n1)C(=O)NCC(=O)N[C@@H](CC(=O)O)C(N)=O
[5] = from CC(C)(C)OC(=O)NC[C@H](N)C(=O)NCC(=O)N[C@@H](CNC(=O)c1cnc2ccccc2n1)C(=O)N[C@@H](CNC(=O)c1cnc2ccccc2n1)C(=O)NCC(=O)N[C@@H](CNC(=O)c1cnc2ccccc2n1)C(=O)N[C@@H](CC(=O)O)C(N)=O
[6] = from CC(C)(C)OC(=O)NC[C@H](N)C(=O)NCC(=O)NCC(=O)N[C@@H](CNC(=O)c1cnc2ccccc2n1)C(=O)NCC(=O)NCC(=O)N[C@@H](CC(=O)O)C(N)=O
[7] = from CC(C)(C)OC(=O)NC[C@H](N)C(=O)NCC(=O)N[C@@H](CNC(=O)c1cnc2ccccc2n1)C(=O)N[C@@H](CNC(=O)c1cnc2ccccc2n1)C(=O)N[C@@H](CNC(=O)c1cnc2ccccc2n1)C(=O)NCC(=O)N[C@@H](CC(=O)O)C(N)=O
[8] = from CC(C)(C)OC(=O)NC[C@H](N)C(=O)N[C@@H](CNC(=O)c1cnc2ccccc2n1)C(=O)NCC(=O)N[C@@H](CNC(=O)c1cnc2ccccc2n1)C(=O)NCC(=O)NCC(=O)N[C@@H](CC(=O)O)C(N)=O
[9] = from CC(C)(C)OC(=O)NC[C@H](N)C(=O)N[C@@H](CNC(=O)c1cnc2ccccc2n1)C(=O)N[C@@H](CNC(=O)c1cnc2ccccc2n1)C(=O)NCC(=O)NCC(=O)NCC(=O)N[C@@H](CC(=O)O)C(N)=O
[10] = from CC(C)(C)OC(=O)NC[C@H](N)C(=O)N[C@@H](CNC(=O)c1cnc2ccccc2n1)C(=O)NCC(=O)N[C@@H](CNC(=O)c1cnc2ccccc2n1)C(=O)N[C@@H](CNC(=O)c1cnc2ccccc2n1)C(=O)NCC(=O)N[C@@H](CC(=O)O)C(N)=O
[11] = from CC(C)(C)OC(=O)NC[C@H](N)C(=O)NCC(=O)N[C@@H](CNC(=O)c1cnc2ccccc2n1)C(=O)N[C@@H](CNC(=O)c1cnc2ccccc2n1)C(=O)NCC(=O)NCC(=O)N[C@@H](CC(=O)O)C(N)=O

NC[C@@H]1NC(=O)C[C@@H](C(N)=O)NC(=O)[C@H](CNC(=O)c2cnc3ccccc3n2)NC(=O)CNC(=O)[C@H](CNC(=O)c2cnc3ccccc3n2)NC(=O)CNC(=O)[C@H](CNC(=O)c2cnc3ccccc3n2)NC1=O
ring closure, product found [1]: 1 | ring closure, conversion by HPLC [1]: 24

NC[C@@H]1NC(=O)C[C@@H](C(N)=O)NC(=O)CNC(=O)[C@H](CNC(=O)c2cnc3ccccc3n2)NC(=O)[C@H](CNC(=O)c2cnc3ccccc3n2)NC(=O)CNC(=O)CNC1=O
ring closure, product found [2]: 1 | ring closure, conversion by HPLC [2]: 60

NC[C@@H]1NC(=O)C[C@@H](C(N)=O)NC(=O)[C@H](CNC(=O)c2cnc3ccccc3n2)NC(=O)[C@H](CNC(=O)c2cnc3ccccc3n2)NC(=O)CNC(=O)CNC(=O)[C@H](CNC(=O)c2cnc3ccccc3n2)NC1=O
ring closure, product found [3]: 0 | ring closure, conversion by HPLC [3]: < 30

NC[C@@H]1NC(=O)C[C@@H](C(N)=O)NC(=O)CNC(=O)[C@H](CNC(=O)c2cnc3ccccc3n2)NC(=O)CNC(=O)[C@H](CNC(=O)c2cnc3ccccc3n2)NC(=O)[C@H](CNC(=O)c2cnc3ccccc3n2)NC1=O
ring closure, product found [4]: 1 | ring closure, conversion by HPLC [4]: 49

NC[C@@H]1NC(=O)C[C@@H](C(N)=O)NC(=O)[C@H](CNC(=O)c2cnc3ccccc3n2)NC(=O)CNC(=O)[C@H](CNC(=O)c2cnc3ccccc3n2)NC(=O)[C@H](CNC(=O)c2cnc3ccccc3n2)NC(=O)CNC1=O
ring closure, product found [5]: 0 | ring closure, conversion by HPLC [5]: < 34

NC[C@@H]1NC(=O)C[C@@H](C(N)=O)NC(=O)CNC(=O)CNC(=O)[C@H](CNC(=O)c2cnc3ccccc3n2)NC(=O)CNC(=O)CNC1=O [H-Dap(Boc)-Gly-Gly-Dap(Qxc)-Gly-Gly-Asp(OH)-NH-Rink resin]
ring closure, product found [6]: 1 | ring closure, conversion by HPLC [6]: 84

NC[C@@H]1NC(=O)C[C@@H](C(N)=O)NC(=O)CNC(=O)[C@H](CNC(=O)c2cnc3ccccc3n2)NC(=O)[C@H](CNC(=O)c2cnc3ccccc3n2)NC(=O)[C@H](CNC(=O)c2cnc3ccccc3n2)NC(=O)CNC1=O
ring closure, product found [7]: 1 | ring closure, conversion by HPLC [7]: 79

NC[C@@H]1NC(=O)C[C@@H](C(N)=O)NC(=O)CNC(=O)CNC(=O)[C@H](CNC(=O)c2cnc3ccccc3n2)NC(=O)CNC(=O)[C@H](CNC(=O)c2cnc3ccccc3n2)NC1=O
ring closure, product found [8]: 1 | ring closure, conversion by HPLC [8]: 39

NC[C@@H]1NC(=O)C[C@@H](C(N)=O)NC(=O)CNC(=O)CNC(=O)CNC(=O)[C@H](CNC(=O)c2cnc3ccccc3n2)NC(=O)[C@H](CNC(=O)c2cnc3ccccc3n2)NC1=O
ring closure, product found [9]: 1 | ring closure, conversion by HPLC [9]: 35

NC[C@@H]1NC(=O)C[C@@H](C(N)=O)NC(=O)CNC(=O)[C@H](CNC(=O)c2cnc3ccccc3n2)NC(=O)[C@H](CNC(=O)c2cnc3ccccc3n2)NC(=O)CNC(=O)[C@H](CNC(=O)c2cnc3ccccc3n2)NC1=O
ring closure, product found [10]: 1 | ring closure, conversion by HPLC [10]: 81

NC[C@@H]1NC(=O)C[C@@H](C(N)=O)NC(=O)CNC(=O)CNC(=O)[C@H](CNC(=O)c2cnc3ccccc3n2)NC(=O)[C@H](CNC(=O)c2cnc3ccccc3n2)NC(=O)CNC1=O
ring closure, product found [11]: 1 | ring closure, conversion by HPLC [11]: 69
